Experimental data reported in patent US4844895A, “Composition containing a peptide fragment of platelet factor four and method for restoring suppressed immune responses” (New York University, priority 1987, dated 1989).
No end group written: not given here.

Key:
monocytes = conditions: Osterman et al, Biochem. Biophys. Res. Comm. 107:130-135, 1982; cited from earlier work
[1] = tested on: spleen, lymph node and thymus cells; test: Absorption of immunoregulatory activity by cells from lymphoid organs, read out as reversal of Con A-induced suppression (PFC/spleen); type: in vivo, CB6F1 mouse
Procedure: (§1) The spleens of the mice were assayed for plaque-forming cells (PFC) on day 5 after injection of sheep red blood cells. The assay employed was as follows: single-cell suspensions were prepared from individual spleens of mice. The cells were suspended in Hanks' Balanced Salt Solution (Gibco Laboratories, Grand Island, New York) and washed. Direct PFC were enumerated using the well-known method of Jerne, N.K. et al (in Cell-Bound Antibody, Amos, E. and Koprowsky, H. eds., Wistar Institute Press. pp. 109-111, […]) with the slide modification of Mishell, R.I. and Dutton, R.W. (J. Exp. Med. 126:423, 1967), both incorporated by reference.
In order to confirm and expand this finding, 1 ml o serum, diluted 1:2, was absorbed twice for thirty minutes at 4° C. using half the number of cells for each absorption as are listed for spleen (Sp1), lymphnode (LN) and thymus (Thy) in Table 3. Each CB6F1 mouse received 0.2 ml of a 1:4 dilution of absorbed or unabsorbed serum i.v. one to two hours before administration of 2×10^6 SRBC i.v. Plaque-forming cell response was measured as in Example 2.
The experiments were performed exactly as described for the PF4 holoprotein in Example 4 above, except that 0.5 (Expt. 1) or 2.5 micrograms (Expt. 2) of the PF4 tridecapeptide was administered.

[2] = tested on: Con A-induced suppression; test: Reversal of Con A-induced suppression of the splenic plaque-forming cell (PFC) response to SRBC in mice; type: in vivo; conditions: for Reversal of Con A-induced suppression (result in words): mice, PFC response to SRBC; for Activity / effective amount on a molar basis relative to the PF4 holoprotein: restoring suppressed immune responses in mice
Procedure: Concanavalin A (Miles--Yeda Ltd., Research Products, Israel) was reconstituted with saline and kept frozen. Dilutions from the frozen stock were stored at 4° C. and injected i.v. into mice one day prior to antigen, sheep erythrocytes (SRBC). SRBC were obtained from Colorado Serum Company (Denver, Colorado) washed, counted and injected intraperitoneally (i.p.) in mice. Human serum or platelet releasate was administered i.v. one to two hours before Con A i.v.
as §1, with “reference. […]” for “reference.”
When treated with thrombin or A23187 (Calcium ionophore), platelets also release alpha granule constituents other than PF4. In particular, they release LA-PF4 and PDGF. The inventors tested the ability of LA-PF4 and PDGF to overcome suppression induced by 5 μg Con A. […]
Mice were injected with 10 micrograms of Con A i.v. on day -1 (except in the positive control, which received no Con A) and on day 0 with 2.5×10^6 SRBC per mouse as in Example 2 above. On day -1, the mice also received either: Nothing (100% control), Con A only, platelet releasate (equivalent to the amount of PF4 holoprotein contained in the platelet releasate from 2×10^7 platelets or about 0.12 microgram/mouse) and various concentrations of the above-mentioned synthetic C-terminal peptide of human PF4.

[3] = 10 micrograms Con A, 0.7-1 μg Tridecapeptide
[4] = 10 micrograms Con A, 2.5-7 μg Tridecapeptide
[5] = 10 micrograms Con A, 2.5-7 μg Tridecapeptide on day -1, n 5-10

For “Pro-Leu-Tyr-Lys-Lys-Ile-Ile-Lys-Lys-Leu-Leu-Glu-Ser-COOH (PLYKKIIKKLLES-OH) [Tridecapeptide, carboxy-terminal 13 amino acid residues of human PF4]”, the “Chemotactic activity for monocytes (result in words)” value (monocytes) is given as “potent chemotactic agent”, the “Geom mean PFC/Spleen, Expt. 1 Geom. Mean” value ([1]; SRBC + Con A, 0.5 μg/mouse tridecapeptide, unabsorbed or absorbed with cells) is given as 23,488 PFC/Spleen and the “Geom mean PFC/Spleen, Expt. 2 Geom. Mean” value ([1]; SRBC + Con A, 2.5 μg/mouse tridecapeptide, unabsorbed or absorbed with cells) is given as 38,790 PFC/Spleen. The “Absorption of the immunoregulatory activity by cells (result in words)” value ([1]; normal mouse spleen cells) was “spleen cells can absorb”, the “Reversal of immunosuppression induced by Con A (result in words)” value ([2]; 0.7-7 micrograms administered to mice) was “active in reversing the immunosuppression induced by Con A” and the “Expt.1 % (of 100% control)” value ([2]; 10 micrograms Con A, 0.007 μg Tridecapeptide) was 52%. For the same substance, the “Geom. Mean PFC/Spleen (SE), Expt.1 PFC” value ([2]; 10 micrograms Con A, 0.007 μg Tridecapeptide on day -1, n 5-10) was 5,700(1.4) PFC/Spleen, the “Expt.1 % (of 100% control)” value ([2]; 10 micrograms Con A, 0.07 μg Tridecapeptide) was 37% and the “Geom. Mean PFC/Spleen (SE), Expt.1 PFC” value ([2]; 10 micrograms Con A, 0.07 μg Tridecapeptide on day -1, n 5-10) was 4,000(1.4) PFC/Spleen. For the same substance, the “Expt.1 % (of 100% control)” value [2, 3] was 95%, the “Expt.2 % (of 100% control)” value [2, 3] was 226% and the “Geom. Mean PFC/Spleen (SE), Expt.1 PFC” value ([2]; 10 micrograms Con A, 0.7-1 μg Tridecapeptide on day -1, n 5-10) was 10,400(1.1) PFC/Spleen. For the same substance, the “Expt.1 % (of 100% control)” value [2, 4] was 99%, the “Expt.3 % (of 100% control)” value [2, 4] was 270% and the “Geom. Mean PFC/Spleen (SE), Expt.1 PFC” value [2, 5] was 10,900(1.2) PFC/Spleen. For the same substance, the “Geom. Mean PFC/Spleen (SE), Expt.3 PFC” value [2, 5] was 38,800(1,1) PFC/Spleen, the “Reversal of Con A-induced suppression (result in words)” value [2] was “able to overcome Con A-induced suppression in a dose-dependent fashion” and the “Activity / effective amount on a molar basis relative to the PF4 holoprotein” value [2] was “less than that of the holoprotein”. The “Activity / effective amount on a molar basis relative to the PF4 holoprotein” value ([2]; listed as PF4 tridecapeptide) was “About three times more”.
For “PDGF: platelet-derived growth factor, platelet alpha-granule constituent [reference compound]”, the “Geom. Mean of PFC/Spleen On Day 5, Expt. 1” value ([2]; 5 μg Con A, antilog of standard error ≤ 1.1, n = 4, PDGF 0.003 μg per mouse) was 8,370 PFC/Spleen, the “Immunomodulatory activity against suppression induced by 5 μg Con A (result in words)” value ([2]; concentrations well below those in serum: PDGF 0.003 μg, LA-PF4 0.6 μg, purified PF4 0.2 to 0.6 μg per mouse) was “little or not activity” and the “Reversal of Con A-induced suppression (result in words)” value [2] was “no significant immunomodulating activity”.
